23 molecules from patent publication US20250042920A1 (OCEAN UNIVERSITY OF CHINA, priority 2021, published 2025) can be followed below.

The structures appear in SMILES notation.

The target in test [1] is MNK2 (Homo sapiens, UniProt Q9HBH9). Description: MNK2 kinase inhibition assay (LANCE Ultra kinase activity assay, PerkinElmer). The test is classed as biochemical. Conditions: 100 μM ATP; for IC50: five concentrations 10000-1 nM; for inhibition at 1 µM: inhibition rate at 1000 nM compound, 60 min, 25° C., read-out: Inhibitory activity(1 μM) MNK2. As for the experimental part:
(§1) MNK1 and MNK2 kinase inhibition assays were performed using LANCE Ultra kinase activity assay developed by PerkinElmer. […] The test steps are as follows: At 25° C., 1.00 ng MNK1 or 0.05 ng MNK2 was prepared with different concentrations (10000, 1000, 100, 10, 1 nM) of the tested compound to form a total volume of 10 μL reaction mixture (MNK1: 12.5 nM CREB, 450 μM ATP, 2 mM DTT, 1× buffer; MNK2: 12.5 nM CREB, 100 μM ATP, 2 mM DTT, 1×buffer), and incubation for 60 min. The reaction was terminated by adding 5 μL EDTA/Detection buffer and 5 μL Eu-CREB/Detection buffer. The ratio of HTRF signals at 615 nm and 665 nm was detected after 60 min of incubation. The inhibition rate was calculated by measuring the compounds at 1000 nM.
(§2) Then five different concentrations (10000, 1000, 100, 10, 1 nM) of the tested compounds were measured, and the IC50 value was calculated according to the inhibition rate fitting curve.
A general note: In TR-FRET formats the signal depends on donor and acceptor labels being close together.

The target in test [2] is MNK1 (Homo sapiens, UniProt Q9BUB5). Kind of test: MNK1 kinase inhibition assay (LANCE Ultra kinase activity assay, PerkinElmer). Type of test: biochemical. Conditions: 450 μM ATP; for IC50: five concentrations 10000-1 nM; for inhibition at 1 µM: inhibition rate at 1000 nM compound, 60 min, 25° C., read-out: Inhibitory activity(1 μM) MNK1. As for the experimental part: as §1, §2
Chain of MNK1 (Q9BUB5 whole entry): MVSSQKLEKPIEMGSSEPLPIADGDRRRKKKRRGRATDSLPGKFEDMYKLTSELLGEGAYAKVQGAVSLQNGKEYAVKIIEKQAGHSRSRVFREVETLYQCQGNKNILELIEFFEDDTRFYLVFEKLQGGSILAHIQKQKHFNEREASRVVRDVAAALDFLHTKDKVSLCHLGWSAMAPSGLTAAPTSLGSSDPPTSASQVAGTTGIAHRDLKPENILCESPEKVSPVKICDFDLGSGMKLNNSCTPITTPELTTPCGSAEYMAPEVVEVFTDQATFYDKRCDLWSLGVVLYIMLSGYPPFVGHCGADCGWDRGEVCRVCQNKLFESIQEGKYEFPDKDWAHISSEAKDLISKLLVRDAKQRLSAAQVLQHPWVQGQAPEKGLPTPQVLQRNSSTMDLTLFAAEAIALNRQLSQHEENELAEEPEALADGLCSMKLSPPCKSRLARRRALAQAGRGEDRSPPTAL

Chain of MNK2 (Q9HBH9 whole entry): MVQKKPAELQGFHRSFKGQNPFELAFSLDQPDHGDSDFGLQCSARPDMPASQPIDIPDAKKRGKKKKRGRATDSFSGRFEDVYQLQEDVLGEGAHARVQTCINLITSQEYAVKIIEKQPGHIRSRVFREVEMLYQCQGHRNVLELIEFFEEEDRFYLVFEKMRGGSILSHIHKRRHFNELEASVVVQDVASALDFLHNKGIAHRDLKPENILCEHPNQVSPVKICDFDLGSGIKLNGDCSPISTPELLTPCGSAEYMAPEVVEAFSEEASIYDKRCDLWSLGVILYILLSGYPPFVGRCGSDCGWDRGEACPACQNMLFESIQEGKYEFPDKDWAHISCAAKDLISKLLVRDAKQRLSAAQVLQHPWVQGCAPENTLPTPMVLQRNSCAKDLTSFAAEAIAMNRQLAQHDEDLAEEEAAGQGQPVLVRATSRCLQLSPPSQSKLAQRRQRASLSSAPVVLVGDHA

For orientation: IC50 means the point on the concentration scale where inhibition reaches its midpoint. Consider `N#Cc1ccc(-c2cnc3sc(-c4ccc(C(=O)N5CCOCC5)cc4)nn23)cc1` [Compound 1, 4-(2-(4-(morpholine-4-carbonyl)phenyl)imidazo[2,1-b][1,3,4]thiadiazol-5-yl)benzonitrile], for which, in test [1], the IC50 was below 50 nM and the inhibition at 1 µM is above 75%. For the same molecule, in test [2], the IC50 is below 50 nM and the inhibition at 1 µM was above 75%.
On to `O=C(c1ccc(-c2nn3c(-c4ccc(F)cc4)cnc3s2)cc1)N1CCOCC1` [Compound 2, (4-(5-(4-fluorophenyl)imidazo[2,1-b][1,3,4]thiadiazol-2-yl)phenyl)(morpholino)methanone], for which, in test [1], the IC50 was below 50 nM and the inhibition at 1 µM is above 75%. Further, in test [2], the IC50 lay within 200 to 800 nM and the inhibition at 1 µM was above 75%.
For the molecule `O=C(c1ccc(-c2nn3c(-c4ccc(O)cc4)cnc3s2)cc1)N1CCOCC1` [Compound 3, (4-(5-(4-hydroxyphenyl)imidazo[2,1-b][1,3,4]thiadiazol-2-yl)phenyl)(morpholino)methanone], in test [1], the IC50 is below 50 nM and the inhibition at 1 µM is above 75%. Moreover, in test [2], the IC50 was below 50 nM and the inhibition at 1 µM is above 75%.
For `COC(=O)c1ccc(-c2cnc3sc(-c4ccc(C(=O)N5CCOCC5)cc4)nn23)cc1` [Compound 4], the inhibition at 1 µM in test [1] and in test [2] was above 75% each time.
On to `O=C(c1ccc(-c2nn3c(-c4ccc(C(F)(F)F)cc4)cnc3s2)cc1)N1CCOCC1` [Compound 5, morpholino(4-(5-(4-(trifluoromethyl)phenyl)imidazo[2,1-b][1,3,4]thiadiazol-2-yl)phenyl)methanone], for which the half-inhibitory concentration (IC50) in test [1] and in test [2] was 50 to 200 nM throughout. Moreover, the inhibition at 1 µM in test [1] and in test [2] was above 75% in each case.
As for `O=C(c1ccc(-c2nn3c(-c4ccc(Cl)cc4)cnc3s2)cc1)N1CCOCC1` [Compound 6, (4-(5-(4-chlorophenyl)imidazo[2,1-b][1,3,4]thiadiazol-2-yl)phenyl)(morpholino)methanone], in test [1], the IC50 lay in the range of 50 to 200 nM and the inhibition at 1 µM was above 75%. For the same molecule, in test [2], the IC50 was 50 to 200 nM and the inhibition at 1 µM was above 75%.
Take `Cc1ccc(-c2cnc3sc(-c4ccc(C(=O)N5CCOCC5)cc4)nn23)cc1` [Compound 7, morpholino(4-(5-(p-tolyl)imidazo[2,1-b][1,3,4]thiadiazol-2-yl)phenyl)methanone]: the inhibition at 1 µM in test [1] and in test [2] was above 75% throughout.
Turning to `O=C(c1ccc(-c2nn3c(-c4ccc(CO)cc4)cnc3s2)cc1)N1CCOCC1` [Compound 8], in test [1], the IC50 lay within 200 to 800 nM and the inhibition at 1 µM is above 75%. Besides, in test [2], the IC50 lay within 200 to 800 nM and the inhibition at 1 µM was above 75%.
Turning to `O=C(c1ccc(-c2nn3c(-c4ccc(C(F)(F)F)c(F)c4)cnc3s2)cc1)N1CCOCC1` [Compound 9, (4-(5-(3-fluoro-4-(trifluoromethyl)phenyl)imidazo[2,1-b][1,3,4]thiadiazol-2-yl)phenyl)(morpholino)methanone], the inhibition at 1 µM in test [1] and in test [2] was above 75% throughout.
For `O=C(c1ccc(-c2nn3c(-c4ccc(O)c(F)c4)cnc3s2)cc1)N1CCOCC1` [Compound 10, (4-(5-(3-fluoro-4-hydroxyphenyl)imidazo[2,1-b][1,3,4]thiadiazol-2-yl)phenyl)(morpholino)methanone], in test [1], the IC50 was below 50 nM and the inhibition at 1 µM was above 75%. In test [2], the IC50 lay in the range of 50 to 200 nM and the inhibition at 1 µM was above 75%.
With `O=C(c1ccc(-c2nn3c(-c4ccc(F)c(F)c4)cnc3s2)cc1)N1CCOCC1` [Compound 11, (4-(5-(3,4-difluorophenyl)imidazo[2,1-b][1,3,4]thiadiazol-2-yl)phenyl)(morpholino)methanone], the inhibition at 1 µM in test [1] and in test [2] was above 75% each time.
Regarding `CN(C)C1CCN(C(=O)c2ccc(-c3nn4c(-c5ccc(F)cc5)cnc4s3)cc2)CC1` [Compound 13, (4-(dimethylamino)piperidin-1-yl)(4-(5-(4-fluorophenyl)imidazo[2,1-b][1,3,4]thiadiazol-2-yl)phenyl)methanone], the IC50 in test [1] and in test [2] was below 50 nM in each case. Further, the inhibition at 1 µM in test [1] and in test [2] was above 75% throughout.
`CN(C)C1CCN(C(=O)c2ccc(-c3nn4c(-c5ccc(O)cc5)cnc4s3)cc2)CC1` [Compound 14, (4-(dimethylamino)piperidin-1-yl)(4-(5-(4-hydroxyphenyl)imidazo[2,1-b][1,3,4]thiadiazol-2-yl)phenyl)methanone]: the IC50 in test [1] and in test [2] was below 50 nM in each case. Moreover, the inhibition at 1 µM in test [1] and in test [2] was above 75% each time.
Regarding `COc1ccc(-c2cnc3sc(-c4ccc(C(=O)N5CCC(N(C)C)CC5)cc4)nn23)cc1` [Compound 15, (4-(dimethylamino)piperidin-1-yl)(4-(5-(4-methoxyphenyl)imidazo[2,1-b][1,3,4]thiadiazol-2-yl)phenyl)methanone], in test [1], the IC50 was below 50 nM and the inhibition at 1 µM is above 75%. Also, in test [2], the IC50 is below 50 nM and the inhibition at 1 µM is above 75%.
Turning to `CN(C)C1CCN(C(=O)c2ccc(-c3nn4c(-c5ccc(C(F)(F)F)cc5)cnc4s3)cc2)CC1` [Compound 16], the IC50 in test [1] and in test [2] was below 50 nM in each case. Also, the inhibition at 1 µM in test [1] and in test [2] was above 75% each time.
On to `CN1CCN(C(=O)c2ccc(-c3nn4c(-c5ccc(C#N)cc5)cnc4s3)cc2)CC1` [Compound 17, 4-(2-(4-(4-methylpiperazine-1-carbonyl)phenyl)imidazo[2,1-b][1,3,4]thiadiazol-5-yl)benzonitrile], for which, in test [1], the IC50 was below 50 nM and the inhibition at 1 µM is above 75%. In test [2], the IC50 is below 50 nM and the inhibition at 1 µM was above 75%.
As for `CN1CCN(C(=O)c2ccc(-c3nn4c(-c5ccc(F)cc5)cnc4s3)cc2)CC1` [Compound 18, (4-(5-(4-fluorophenyl)imidazo[2,1-b][1,3,4]thiadiazol-2-yl)phenyl)(4-methylpiperazin-1-yl)methanone], in test [1], the IC50 is below 50 nM and the inhibition at 1 µM is above 75%. Moreover, in test [2], the IC50 was in the range of 50 to 200 nM and the inhibition at 1 µM was above 75%.
In the case of `COC(=O)c1ccc(-c2cnc3sc(-c4ccc(C(=O)N5CCN(C)CC5)cc4)nn23)cc1` [Compound 19, methyl 4-(2-(4-(4-methylpiperazine-1-carbonyl)phenyl)imidazo[2,1-b][1,3,4]thiadiazol-5-yl)benzoate], in test [1], the IC50 was in the range of 50 to 200 nM and the inhibition at 1 µM is above 75%. For the same molecule, in test [2], the IC50 was 200 to 800 nM and the inhibition at 1 µM was above 75%.
For `CN1CCN(C(=O)c2ccc(-c3nn4c(-c5ccncc5)cnc4s3)cc2)CC1` [Compound 20, (4-methylpiperazin-1-yl)(4-(5-(pyridin-4-yl)imidazo[2,1-b][1,3,4]thiadiazol-2-yl)phenyl)methanone], in test [1], the IC50 is 50 to 200 nM and the inhibition at 1 µM is above 75%. For the same molecule, in test [2], the IC50 fell in the range of 200 to 800 nM and the inhibition at 1 µM was above 75%.
As to `CN1CCN(C(=O)c2ccc(-c3nn4c(-c5ccc(C(F)(F)F)cc5)cnc4s3)cc2)CC1` [Compound 21, (4-methylpiperazin-1-yl)(4-(5-(4-(trifluoromethyl)phenyl)imidazo[2,1-b][1,3,4]thiadiazol-2-yl)phenyl)methanone], the IC50 in test [1] and in test [2] was below 50 nM in each case. Moreover, the inhibition at 1 µM in test [1] and in test [2] was above 75% each time.
For the molecule `CN1CCN(C(=O)c2ccc(-c3nn4c(-c5ccc(Cl)cc5)cnc4s3)cc2)CC1` [Compound 22, (4-(5-(4-chlorophenyl)imidazo[2,1-b][1,3,4]thiadiazol-2-yl)phenyl)(4-methylpiperazin-1-yl)methanone], the IC50 in test [1] and in test [2] was below 50 nM each time. Moreover, the inhibition at 1 µM in test [1] and in test [2] was above 75% throughout.
Consider `CN1CCN(C(=O)c2ccc(-c3nn4c(-c5ccc(C(F)(F)F)c(F)c5)cnc4s3)cc2)CC1` [Compound 23, (4-(5-(3-fluoro-4-(trifluoromethyl)phenyl)imidazo[2,1-b][1,3,4]thiadiazol-2-yl)phenyl)(4-methylpiperazin-1-yl)methanone], for which, in test [1], the IC50 lay in the range of 200 to 800 nM and the inhibition at 1 µM was above 75%. In test [2], the IC50 lay in the range of 200 to 800 nM and the inhibition at 1 µM was above 75%.
Take `CN1CCN(C(=O)c2ccc(-c3nn4c(-c5ccc(C#N)c(F)c5)cnc4s3)cc2)CC1` [Compound 24, 2-fluoro-4-(2-(4-(4-methylpiperazine-1-carbonyl)phenyl)imidazo[2,1-b][1,3,4]thiadiazol-5-yl)benzonitrile]: in test [1], the IC50 was 50 to 200 nM and the inhibition at 1 µM is above 75%. Further, in test [2], the IC50 was 50 to 200 nM and the inhibition at 1 µM was above 75%.
